Experiments:
[1] = system: Cyclin-dependent kinase inhibitor 1B p27(Kip1); experiment: Western blot, induction of p27(Kip1); assay type: cell-based, human; conditions: A2058, DU145, A549 and SKOV3 cells
Procedure: Induction of p16, p53, p21waf1 and p27 (FIGS. 8 and 9): Western blot analyses were performed with specific antibodies. Briefly, human A2058 melanoma, DU145 prostate, A549 non-small lung and SKOV3 ovarian cancer cells were treated with ETP69. Whole-cell lysates (40 […]g) were resolved by SDS-PAGE. Primary specific antibodies to p53, p21^WAF1, p27(Kip1), p16 and Actin were diluted in PBS (pH 7.5) with 5% (w/v) nonfat milk and 0.1% (v/v) Tween-20 over night at 4° C. Horseradish peroxidase-conjugated secondary antibodies were incubated in PBS (pH 7.5) with 5% (w/v) nonfat milk and 0.1% (v/v) Tween-20 for 1 h at room temperature. Positive immuno-reactive proteins were detected using the ECL system (Pierce, Rockford, Ill.).

[2] = system: A549 non-small cell lung cancer cells; experiment: MTS cell viability assay, alone and in combination with multi-kinase inhibitor; assay type: cell-based; conditions: Homo sapiens
Procedure: Cell Testing Assays with ETP Derivatives in Combination with DNMT Inhibitors and Multi-Kinase Inhibitors (See FIGS. 12A-12D, 13A-13C and 14A-14C): MTS assays were performed for cell viability for combination study with ETP69 plus DNMT inhibitors or mutikinase inhibitor. Human SKOV3 ovarian and A549 non-small cancer cells were seeded in 96-well plates (5000/well), incubated overnight at 37° C. in 5% CO2, and exposed to ETP69 plus azacitidine, decitabine or sorafenib for 48. Dimethyl sulfoxide (DMSO) was used as the vehicle control. Viable cell numbers were determined by tetrazolium conversion to its formazan dye and absorbance was measured at 490 nm using an automated ELISA plate reader. Each experiment was performed in quadruplicate.
IC50 Determinations for Ovarian, Liver, Pancreatic, CML, AML Cancer Cell Lines (See e.g. FIGS. 4, 6A-6C, 21, 22A, 22B, 23, 24A-24C, 25A, 25B and 34): MTS assays were performed for cell viability. […] Viable cell numbers were determined by tetrazolium conversion to its formazan dye and absorbance was measured at 490 nm using an automated ELISA plate reader. […]

[3] = system: Panc1 pancreatic cancer cells; experiment: Senescence assay (senescence-associated beta-galactosidase activity); assay type: cell-based; conditions: 5 days, compared to DMSO
Procedure: Senescence Assay: Panc1 cells were seeded at a density of 3×10^4 cells per well in a 24-well plate. The cells were then treated with 100 nM ETP69 or 0.3% DMSO (vehicle control). Panc-1 and SU.86.86 cells expressing SUV39H1 shRNA or a non-targeting (NT) control shRNA were also seeded in 24-well plates at a density of 3×10^4 cells/well and 5×10^4 cells/well, respectively. After 5 days, cells were washed with PBS, fixed with 3% formaldehyde/PBS, and stained over night at 37° C. with a freshly prepared staining solution (1 mg/ml 5-bromo-4-chloro-3-indolyl b-D-galactoside in 40 mM citric acid/sodium phosphate, pH 6.0, 5 mM potassium ferrocyanide, 5 mM potassium ferricyanide, 150 mM NaCl, 2 mM MgCl2). The blue stain indicates senescence-associated β-galactosidase activity. Photographs were taken with a 100× or a 20× objective under brightfield illumination using an INFINITY2 digital CCD camera (Lumenera, Canada) mounted on a Nikon Eclipse TS100 inverted microscope.

[4] = system: HCC38 triple negative breast cancer cells; experiment: Cell viability assay; assay type: cell-based
[5] = system: MDA-MB-468 triple negative breast cancer cells; experiment: Cell viability assay; assay type: cell-based
[6] = system: A2058 melanoma SQ xenografts; assay type: in vivo, mouse; conditions: A2058 xenograft, 20 mg/kg IP once daily for 13 days
Procedure: In Vivo Xenograft Procedures for Lung Cancer, Melanoma, and Ovarian Cancer (See FIGS. 15A, 15B, 16A, 16B, 17A, 17B, 18A and 18B): Human A2058 melanoma cells (3×10^6) were resuspended in serum-free RPMI1640 medium and subcutaneously injected into the flank of 5-6 weeks old Athymic female nude mouse (NCI). When palpable tumor sizes reached at approximately 100 mm^3, mice were divided into two groups (vehicle=5, treatment=5). Then, ETP69 was administered with intraperitoneal (IP) injection at 20 mg/kg with vehicle (10% DMSO+0.5% Teen 20+89.5% saline), once daily for 13 days. Tumor volumes were calculated by the formula 1/2a×b^2, where a is the long diameter, and b is the short diameter. Tumor volumes correlate with tumor weights. The statistical significance of group differences was analyzed using a Student's t-test with the two-tailed distribution. P values less than 0.05 were considered statistically significant.

[7] = Toxicity on intraperitoneal injection or oral administration; conditions: up to 20 mg/kg, intraperitoneal injection (IP) or oral administration
[8] = system: p53; experiment: QPCR of p53 expression in Panc1 cells; assay type: cell-based; conditions: 100 nM-500 nM
From the text: QPCR: Total RNA was isolated from cells using the RNeasy kit (Qiagen). The Tetro cDNA kit (Bioline) and SensiFast Probe kit (Bioline) were used to reverse-transcribe and amplify total RNA according to the manufacturer's protocol. The ProbeFinder software (Roche Applied Science) was used to design the primer sets for SUV39H1, p53 and GAPDH and to select the respective probes from the Universal ProbeLibrary (Roche Applied Science). Probe #13 and the following primers were used for the SUV39H1 assay: 5′ […] (SEQ ID NO: 1) and 5′ […] (SEQ ID NO:2). Probe #21 and the following primers were used for the p53 assay: 5′ […] (SEQ ID NO:3) and 5′ […] (SEQ ID NO:4). Probe #60 and the following primers were used for the GAPDH assay: 5′ agccacatcgctcagacac (SEQ ID NO:5) and 5′ gcccaatacgaccaaatcc (SEQ ID NO:6). All samples were run in triplicates. Amplifications were performed on a Bio-Rad CFX96 Touch Multiple-Color Real-time PCR Detection System. The data were normalized to the GAPDH expression and the relative expression levels were calculated using the 2^−ΔΔCt method.

## CN1C(=O)[C@@]23C[C@](C)(C#N)[C@H](c4ccc5c(c4)OCO5)N2C(=O)[C@]1(C)SS3 (racemic) [ETP69, Rac-(3S,6S,7S,8aS)-6-(Benzo[d][1,3]dioxol-5-yl)-2,3,7-trimethyl-1,4-dioxohexahydro-6H-3,8a-epidithiopyrrolo[1,2-a]pyrazine-7-carbonitrile]
[1]
  induction of p27(Kip1): induces
[2]
  IC50: 100 nM
[3]
  senescence-associated beta-galactosidase activity: increased senescence-associated beta-galactosidase activity
[4]
  viability inhibition: viability inhibition
[5]
  viability inhibition: viability inhibition
[6]
  toxicity symptoms: no observable toxicity symptoms
  tumor volume: decreased
  tumor weight: decreased
[7]
  toxicity: no significant toxicity
[8]
  up-regulation of p53: ≥ 3 fold
